Measured values published in ChEMBL document CHEMBL1201862, “PubChem BioAssay data set” (2004).
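Protocol summary: plate cells (96-well), add compound at 5 concentrations, incubate 48 h, interpolate endpoints linearly. Abbreviation: GI50, concentration required for 50% inhibition of growth.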 Activity calls are given as the source filed them. No stated cut-off is given here; in the data, active = GI50 up to about 1.1 µM and inactive = higher.

Experiments:
Test in all cases: growth of human tumour cells (NCI), 48 h
[1] = system: KM12
[2] = system: OVCAR-4
[3] = system: IGROV-1
[4] = system: SNB-75
[5] = system: NCI-H522
[6] = system: K562
[7] = system: MDA-MB-435
[8] = system: NCI/ADR-RES
[9] = system: DU-145
[10] = system: SN12C
[11] = system: MDA-MB-231
[12] = system: A549
[13] = system: SF-295
[14] = system: OVCAR-5
[15] = system: MDA-N
[16] = system: TK-10
[17] = system: SR
[18] = system: MCF7
[19] = system: COLO 205
[20] = system: HCC 2998

Row | Compound | GI50 [1] | GI50 [2] | GI50 [3] | GI50 [4] | GI50 [5] | GI50 [6] | GI50 [7] | GI50 [8] | GI50 [9] | GI50 [10] | GI50 [11] | GI50 [12] | GI50 [13] | GI50 [14] | GI50 [15] | GI50 [16] | GI50 [17] | GI50 [18] | GI50 [19] | GI50 [20]
1 | OC(Cc1cccnc1)(c1ccccc1)c1ccccc1 | 59.7 µM (inactive) | > 100 µM (inactive) | > 100 µM (inactive) | > 100 µM (inactive) | 47 µM (inactive) | 72.1 µM (inactive) | 47 µM (inactive) | 57.9 µM (inactive) | > 100 µM (inactive) | > 100 µM (inactive) | > 100 µM (inactive) | > 100 µM (inactive) | 53.8 µM (inactive) | > 100 µM (inactive) | 47.2 µM (inactive) | > 100 µM (inactive) | 58.7 µM (inactive) | > 100 µM (inactive) | > 100 µM (inactive) | > 100 µM (inactive)
2 | Clc1ccc(-c2c(C3=NCCCN3)nnn2-c2ccc(Cl)cc2)cc1 | 57.4 µM (inactive) | > 65.2 µM (inactive) | 56 µM (inactive) | 29.8 µM (inactive) | 32.9 µM (inactive) | 20.9 µM (inactive) | 19.2 µM (inactive) | > 50.6 µM (inactive) | > 91.2 µM (inactive) | 64 µM (inactive) | > 48.2 µM (inactive) | > 76 µM (inactive) | 34.7 µM (inactive) | 35.3 µM (inactive) | 19.1 µM (inactive) | 40 µM (inactive) | 15.7 µM (inactive) | 26.8 µM (inactive) | 16.6 µM (inactive) | 18.2 µM (inactive)
3 | O=C1C(=C(I)I)c2ccccc2-c2ccccc21 | 12 µM (inactive) | 2.98 µM (inactive) | 6.07 µM (inactive) | 2.58 µM (inactive) | 1.04 µM (active) | 1.85 µM (inactive) | 2.24 µM (inactive) | 3.24 µM (inactive) | 3.67 µM (inactive) | 2.05 µM (inactive) | 2.03 µM (inactive) | 16.3 µM (inactive) | 16.6 µM (inactive) | 5.47 µM (inactive) | 2 µM (inactive) | 1.88 µM (inactive) | 2.33 µM (inactive) | 3.59 µM (inactive) | 1.56 µM (inactive) | 2.51 µM (inactive)
4 | CCCCN1C(=O)c2c(-c3sccc3N)sc(-c3sccc3N)c2C1=O | 44.6 µM (inactive) | 10.9 µM (inactive) | 23 µM (inactive) | 10.4 µM (inactive) | 14.1 µM (inactive) | 16.3 µM (inactive) | 30.8 µM (inactive) | 21.3 µM (inactive) | 21.4 µM (inactive) | 19 µM (inactive) | 30.8 µM (inactive) | 24.1 µM (inactive) | 14.5 µM (inactive) | 21.5 µM (inactive) | 4.94 µM (inactive) | 22.3 µM (inactive) | 1.98 µM (inactive) | 11.2 µM (inactive) | 15.4 µM (inactive) | 73.6 µM (inactive)
5 | Cc1ccnc(Nc2[nH]c(C(=O)c3ccc(Cl)cc3)c(N)c2C(=S)Nc2ccccc2)c1 | 10 µM (inactive) | 6.01 µM (inactive) | 9.02 µM (inactive) | 18.1 µM (inactive) | 12.8 µM (inactive) | 18.3 µM (inactive) | 15.7 µM (inactive) | 2.57 µM (inactive) | 22.1 µM (inactive) | 15.7 µM (inactive) | 16.6 µM (inactive) | 16 µM (inactive) | 14.5 µM (inactive) | 21.2 µM (inactive) | 15.2 µM (inactive) | 17.2 µM (inactive) | 12.6 µM (inactive) | 9.16 µM (inactive) | 16 µM (inactive) | 14.7 µM (inactive)
6 | O=C1C(Cl)=CC2(C=C1Cl)CCNC1=C2C(=O)c2nc[nH]c2C1=O | 43.4 µM (inactive) | 58.7 µM (inactive) | 47.1 µM (inactive) | 97.5 µM (inactive) | 21.1 µM (inactive) | 29.4 µM (inactive) | 18.2 µM (inactive) | > 100 µM (inactive) | > 100 µM (inactive) | 36.5 µM (inactive) | 35.6 µM (inactive) | > 100 µM (inactive) | > 100 µM (inactive) | > 100 µM (inactive) | 18.5 µM (inactive) | > 100 µM (inactive) | 2.12 µM (inactive) | 22.3 µM (inactive) | 22.9 µM (inactive) | 39.4 µM (inactive)
7 | C=CCNC1=C2C[C@@H](C)C[C@@H](OC)[C@H](OC(=O)CCCCN)[C@H](C)/C=C(\C)[C@@H](OC(N)=O)[C@H](OC)/C=C\C=C(/C)C(=O)NC(=CC1=O)C2=O | 4.97 µM (inactive) | 15.8 µM (inactive) | 13.6 µM (inactive) | 5.51 µM (inactive) | 13.6 µM (inactive) | 9.62 µM (inactive) | 12.8 µM (inactive) | > 100 µM (inactive) | 6.47 µM (inactive) | 13 µM (inactive) | 14.2 µM (inactive) | 11.9 µM (inactive) | 15.7 µM (inactive) | 19 µM (inactive) | 8.55 µM (inactive) | 15 µM (inactive) | 4.93 µM (inactive) | 3.77 µM (inactive) | 5.22 µM (inactive) | 4.27 µM (inactive)
8 | CC1(C)OC2[C@@H](CO[C@@]3([C@H]4OC(C)(C)O[C@@H]4CO)OC(C)(C)O[C@@H]23)O1 (stereo not given in full) | > 100 µM (inactive) | > 100 µM (inactive) | > 100 µM (inactive) | > 100 µM (inactive) | > 100 µM (inactive) | > 100 µM (inactive) | > 100 µM (inactive) | > 100 µM (inactive) | > 100 µM (inactive) | > 100 µM (inactive) | > 100 µM (inactive) | > 100 µM (inactive) | > 100 µM (inactive) | > 100 µM (inactive) | > 100 µM (inactive) | > 100 µM (inactive) | > 100 µM (inactive) | > 100 µM (inactive) | > 100 µM (inactive) | > 100 µM (inactive)
9 | CCCCn1c(C)c2c(c1C)C(=O)N(CCN1CCN(c3ccccc3Cl)CC1)C2=O | 31.5 µM (inactive) | 51.2 µM (inactive) | 30.9 µM (inactive) | 31.6 µM (inactive) | 25.5 µM (inactive) | 31.6 µM (inactive) | 32.4 µM (inactive) | 46.7 µM (inactive) | 36 µM (inactive) | 26.7 µM (inactive) | 51.2 µM (inactive) | 38.2 µM (inactive) | 23.1 µM (inactive) | 61.8 µM (inactive) | 34.6 µM (inactive) | 43.5 µM (inactive) | 26.4 µM (inactive) | 32.4 µM (inactive) | 35 µM (inactive) | 30.6 µM (inactive)
10 | C=CCOc1ccc(C2(c3ccc(OCC=C)cc3)C(=O)Nc3ccccc32)cc1 | > 10 µM (inactive) | 3.4 µM (inactive) | > 10 µM (inactive) | > 10 µM (inactive) | > 10 µM (inactive) | > 10 µM (inactive) | > 10 µM (inactive) | > 10 µM (inactive) | > 10 µM (inactive) | > 10 µM (inactive) | > 10 µM (inactive) | > 10 µM (inactive) | > 10 µM (inactive) | > 10 µM (inactive) | > 10 µM (inactive) | > 10 µM (inactive) | > 10 µM (inactive) | 8.57 µM (inactive) | 7.19 µM (inactive) | > 10 µM (inactive)
11 | CCN(CC)CCCC(C)Nc1ccnc(/C=C/c2ccc(Cl)cc2)c1 (stereo not given) | 2.02 µM (inactive) | 3.51 µM (inactive) | 2.17 µM (inactive) | 1.77 µM (inactive) | 1.63 µM (inactive) | 0.135 µM (active) | 1.56 µM (inactive) | 3.12 µM (inactive) | 9.08 µM (inactive) | 2.07 µM (inactive) | 0.497 µM (active) | 1.91 µM (inactive) | 3.02 µM (inactive) | 2.61 µM (inactive) | 1.83 µM (inactive) | 2.38 µM (inactive) | 2.3 µM (inactive) | 2.55 µM (inactive) | 1.35 µM (inactive) | 1.95 µM (inactive)
12 | C[n+]1ccc(/C2=C3\C=CC(=N3)/C(c3cc[n+](C)cc3)=c3/cc/c([nH]3)=C(\c3cc[n+](C)cc3)C3=N/C(=C(/c4cc[n+](C)cc4)C4C=CC2N4)C=C3)cc1 | 35.9 µM (inactive) | > 70 µM (inactive) | 71.4 µM (inactive) | 51.1 µM (inactive) | > 100 µM (inactive) | > 90.4 µM (inactive) | > 61.7 µM (inactive) | > 100 µM (inactive) | > 100 µM (inactive) | > 100 µM (inactive) | > 100 µM (inactive) | 80.2 µM (inactive) | > 100 µM (inactive) | > 100 µM (inactive) | > 100 µM (inactive) | > 100 µM (inactive) | 7.73 µM (inactive) | > 100 µM (inactive) | > 100 µM (inactive) | 84.7 µM (inactive)
13 | NCCNCCNc1ccc(NCCNCCN)c2c1C(=O)c1c(O)ccc(O)c1C2=O | > 100 µM (inactive) | > 100 µM (inactive) | > 100 µM (inactive) | > 100 µM (inactive) | > 100 µM (inactive) | > 100 µM (inactive) | > 100 µM (inactive) | > 100 µM (inactive) | > 100 µM (inactive) | > 100 µM (inactive) | > 100 µM (inactive) | > 100 µM (inactive) | 99.3 µM (inactive) | > 100 µM (inactive) | > 100 µM (inactive) | > 100 µM (inactive) | 2.21 µM (inactive) | 59.7 µM (inactive) | > 100 µM (inactive) | > 100 µM (inactive)
